# From patent US8618178B2, “Method and substances for treating T-cell mediated autoimmune diseases” (Eberhard-Karls-Universitaet Tuebingen Universitaetsklinikum, priority 2006, dated 2013)
# Entries after “also recorded” stand apart in the source; their conditions may differ. Structures can show the parent of a compound that is named as a salt.
# How the values were obtained:
# [1] = test system: ovalbumin-specific CD4+ T cells; experiment: Priming of ovalbumin-specific CD4+ T cells with treated DC, IFN-γ and IL-4 by ELISA; format: cell-based, mouse; conditions: restimulated with fresh APC and antigen
# Experimental: (§1) IL-4, IL-10, IL-12 and interferon-γ were determined using the ELISA (enzyme linked immunosorbent assay) set or with the use of individual components from BD BioSciences. IL-23 in the supernatant was determined using the ELISA set (eBioscience). For intracytoplasmic cytokine analyses, the T cells were restimulated with PMA/ionomycin or with APC and peptide in the presence of brefeldin A, then fixed and permeabilized and stained. For the surface staining, anti-CD4 or KJ1-26 antibodies were used; the cytokine antibodies (PE labeled) were all obtained from BD Pharmingen.
# (§2) The CD4+ T cells of DO11.10 mice were sorted using MACS magnet beads (Miltenyi Biotech). By culturing of DC on day seven with either medium and DMSO or DMF for 2 hours, DC^GSHhigh or DC^GSHlow could be generated. After four-hour stimulation with LPS or CpG-DNA/IL-4, the DC^GSHhigh or DC^GSHlow were used for the stimulation of DO11.10 T cells with 10 μg/ml ovalbumin peptide 323-339 for two days. The T cells were expanded with 50 U/ml IL-2 (Chiron Therapeutics). The cells were washed on day 10 and restimulated with fresh APC. The analysis was performed with the supernatants after 24 hrs. CD4^+ T cells were obtained from SJL mice immunized with PLP peptide using MACS magnet beads and stimulated with irradiated APC and PLP peptide 139-151 in the presence of L-BSO, DMF or only in medium as control. […]
# IL-23 = IL-23 production by DC, ELISA of culture supernatants; format: cell-based, mouse
# Experimental: as §1
# (§3) As antigen presenting cells (APC), T cell depleted spleen cells from syngenic mice were used. Dendritic cells (DC) which were obtained from bone marrow (BMDC) and cultured with GM-CSF were used for the relevant experiments on day 7 of culturing. For the experiment, in each case an equal number of APC were cultured either with the medium alone, with L-BSO (C8H18N2O3S, 0.5 mM), dimethyl sulfoxide DMSO(C2H6OS), dimethyl fumarate DMF (C6H8O4, dissolved in DMSO, 70 μM), or calcium monomethyl fumarate (MMF; CaC10H10O8, 200 μM). All substances except for MMF (Fumapharm) were purchased from Sigma-Aldrich. At the respective stated times (see below) the cells were either analyzed directly for their GSH content, used for T cell stimulation or stimulated for […] with Escherichia coli lipopolysaccharides 055.B5 (Sigma-Aldrich) or CpG-DNA 1668 (MWG Biotech) and IL-4 (Stratmann). In order to raise the GSH level again, 1 mM GSH-OEt (C12H21N3O6S; Sigma-Aldrich) or 1 mM NAC (Sigma-Aldrich) was added. The GSH reservoirs in mice were depleted by feeding with DMF or MMF, and in man by treatment with Fumaderm®.
# human DC = experiment: GSH determination in human DC in vitro; format: cell-based
# Experimental: Cellular GSH and GSSG were determined in micro-titer plate assays using colorimetric methods. The cellular GHS content is determined as a percentage of the GSH levels in freshly prepared controls or as pmol 10^−6 cells. GSSG was not detectable.
# DC from human bone marrow (BMDC) (CD14^+) were isolated using MACS (Miltenyi Biotech) and incubated for seven days with IL-4 (500 U/ml, R & D Systems) and GM-CSF (Granulocyte-Monocyte Colony Stimulating Factor) (1000 U/ml (Immunonex)). GSX determination as under 1.3.
# PLP-specific T cells = experiment: In vitro stimulation of PLP-specific T cells under GSH deprivation; format: cell-based, mouse
# Experimental: as §2, with “hrs.” for “hrs. CD4^+ T cells were obtained from SJL mice immunized with PLP peptide using MACS magnet beads and stimulated with irradiated APC and PLP peptide 139-151 in the presence of L-BSO, DMF or only in medium as control.”
# Spleen and lymph node CD4^+ T cells were stimulated with PLP (proteolipid protein) peptide 139-151 (10 μg/ml) and stimulated for four days with irradiated SJL-APC in the presence or absence of L-BSO (0.5 mM, Sigma), expanded for three to four days and then restimulated for cytokine production (proteolipid protein is the commonest myelin protein in the central nervous system and plays an important part as an autoantigen in the onset of multiple sclerosis). […] For the cytokine analysis of PLP-specific T cells, the draining lymph nodes of the SJL mice were removed 6 days after the immunization and CD4^+ T cells antigen-specifically analyzed (ELISPOT). […] After washing with H2O, the number of spots was determined in the ELISPOT reader (Biosys).
# IL-10 = IL-10 production by DC, ELISA of culture supernatants; format: cell-based, mouse
# Experimental: as §1
# as §3, with “All substances except for MMF (Fumapharm) were purchased from Sigma-Aldrich.” left out, “In order to raise the GSH level again, 1 mM GSH-OEt (C12H21N3O6S; Sigma-Aldrich) or 1 mM NAC (Sigma-Aldrich) was added. The GSH reservoirs in mice were depleted by feeding with DMF or MMF, and in man by treatment with Fumaderm®.” left out
# [2] = test system: experimental autoimmune encephalomyelitis (EAE); experiment: Actively induced EAE in SJL mice, substance in the drinking water; format: in vivo; conditions: for course/severity of actively induced EAE: DMF 0.3 mg/ml or L-BSO 0.15 mg/ml in the drinking water; for survival of mice with actively induced EAE: substance in the drinking water
# Experimental: Spleen and lymph node CD4^+ T cells were stimulated with PLP (proteolipid protein) peptide 139-151 (10 μg/ml) and stimulated for four days with irradiated SJL-APC in the presence or absence of L-BSO (0.5 mM, Sigma), expanded for three to four days and then restimulated for cytokine production (proteolipid protein is the commonest myelin protein in the central nervous system and plays an important part as an autoantigen in the onset of multiple sclerosis). Next, 10^7 sham (control) or L-BSO treated T cells were injected intraperitoneally into naive SJL mice and the EAE developing as a result was observed. […] Half of the group was fed daily for 14 days with DMF 0.3 mg/ml (Fluka) or L-BSO 0.15 mg/ml in the drinking water. For the cytokine analysis of PLP-specific T cells, the draining lymph nodes of the SJL mice were removed 6 days after the immunization and CD4^+ T cells antigen-specifically analyzed (ELISPOT). For this, ELISPOT plates (Millipore Corporation) were coated with anti-IFN-γ or anti-IL-4 antibodies overnight at 4° C., blocked after 12 hrs with PBS/10% FCS and, after the solution had been poured off, the isolated T lymphocytes were incubated with APC and medium alone or in the presence of PLP peptide. After the incubation time, the cells were poured off, and the plates washed with PBS/Tween and incubated with biotin-conjugated secondary antibodies. After further washing procedures and incubation with streptavidin-alkaline phosphatase (Boehringer), the plates were incubated with developer solution. After washing with H2O, the number of spots was determined in the ELISPOT reader (Biosys).
# In order further to study whether GSH deprivation can also influence the differentiation and pathogenicity of autoreactive T cells in vivo, mice were fed with DMF or L-BSO in the drinking water, and the control group only with drinking water. Active EAE induction was effected on day 10 with PLP peptide in complete Freund's adjuvant (CFA) and pertussis toxin. The mice were examined daily regarding the course of the artificially triggered disease. Through the administration of L-BSO or DMF, the GSH levels in lymphoid organs and in the brain of immunized mice could be lowered (not shown). […] 6 days after immunization, the draining lymph nodes of the mice were analyzed. For this, the CD4^+ T cells were isolated and the cytokine production of PLP-specific T cells measured using ELISPOT after in vitro stimulation.
SMILES,IFN-γ production of TH cells induced by treated DC [1],IL-4 production of TH cells induced by treated DC [1],lowering of LPS-induced IL-23 production in DC cultivated from bone marrow (IL-23; LPS-induced),"IL-23 production by DC (IL-23; after stimulation with LPS, compared to controls (DMSO))",GSH in human DC (human DC),differentiation of PLP-specific T cells to Th1 and Th-17 (PLP-specific T cells),differentiation of PLP-specific T cells towards Th2 (PLP-specific T cells),IL-10 production in DC (IL-10),course/severity of actively induced EAE [2],survival of mice with actively induced EAE [2]
"COC(=O)/C=C/C(=O)OC [DMF, dimethyl fumarate]",little IFN-γ,much IL-4,"up to 10,000 fold",markedly less,depletes GSH,inhibits the differentiation of Th1 and Th-17,promotes the differentiation towards Th2,rise in IL-10 production,markedly milder EAE; also recorded: protects actively immunized mice against the onset of severe encephalomyelitis,all mice survived
"CCCCS(=N)(=O)CCC(N)C(=O)O [L-BSO, L-buthionine sulfoximine]",–,–,–,–,–,–,–,–,markedly milder EAE; also recorded: markedly improved; also recorded: protects actively immunized mice against the onset of severe encephalomyelitis,all mice survived
